Patent publication US20090270413A1, “DI-T-BUTYLPHENYL PIPERAZINES AS CALCIUM CHANNEL BLOCKERS” (priority 2008, published 2009)

Legend:
Assay type in all cases: cell-based
[1] = target: T1, Human Cav2.2 channels (Homo sapiens, UniProt Q00975); experiment: Block of Cav2.2 (N-type) channels expressed in HEK293 cells; details: for inhibition at 10 µM / inhibition at 30 µM: HEK293; for inhibition at 10 µM: read-out: Cav 2.2 % Inh @ 10 μM; for inhibition at 30 µM: read-out: Cav 2.2 % Inh @ 30 μM; for IC50: read-out: Cav 2.2 IC50
T1 construct: expressed in transfected cells
Description: Human Cav2.2 channels were stably expressed in HEK293 cells along with alpha2-delta and beta subunits of voltage-gated calcium channels. An inwardly rectifying potassium channel (Kir2.3) was also expressed in these cells to allow more precise control of the cell membrane potential by extracellular potassium concentration. At low bath potassium concentration, the membrane potential is relatively negative, and is depolarized as the bath potassium concentration is raised. In this way, the bath potassium concentration can be used to regulate the voltage-dependent conformations of the channels. Compounds are incubated with cells in the presence of low (4 mM) potassium or elevated (12, 25 or 30 mM) potassium to determine the affinity for compound block of resting (closed) channels at 4 mM potassium or affinity for block of open and inactivated channels at 12, 25 or 30 mM potassium. After the incubation period, Cav2.2 channel opening is triggered by addition of higher concentration of potassium (70 mM final concentration) to further depolarize the cell. The degree of state-dependent block can be estimated from the inhibitory potency of compounds after incubation in different potassium concentrations.
Calcium influx through Cav2.2 channels is determined using a calcium sensitive fluorescent dye in combination with a fluorescent plate reader. Fluorescent changes were measured with either a VIPR (Aurora Instruments) or FLIPR (Molecular Devices) plate reader.
Protocol • 1. Seed cells in Poly-D-Lysine Coated 96 or 384-well plate and keep in a 37° C.-10% CO2 incubator overnight • 2. Remove media, wash cells with 0.2 mL (96-well plate) or 0.05 mL (384-well plate) Dulbecco's Phosphate Buffered Saline (D-PBS) with calcium & magnesium (Invitrogen; 14040) • 3. Add 0.1 mL (96-well plate) or 0.05 mL (384-well plate) of 4 μM fluor-4 (Molecular Probes; F-14202) and 0.02% Pluronic acid (Molecular Probes; P-3000) prepared in D-PBS with calcium & magnesium (Invitrogen; 14040) supplemented with 10 mM Glucose & 10 mM Hepes/NaOH; pH 7.4 • 4. Incubate in the dark at 25° C. for 60-70 min • 5. Remove dye, wash cells with 0.1 mL (96-well plate) or 0.06 mL (384-well plate) of 4, 12, 25, or 30 mM Potassium Pre-polarization Buffer (PPB) • 6. Add 0.1 mL (96-well plate) or 0.03 mL (384-well plate) of 4, 12, 25, 30 mM PPB with or without test compound • 7. Incubate in the dark at 25° C. for 30 min • 8. Read cell plate on VIPR instrument, Excitation=480 nm, Emission=535 nm • 9. With VIPR continuously reading, add 0.1 mL (96-well plate) or 0.03 mL (384-well plate) of Depolarization Buffer (DB), which is 2× the final assay concentration, to the cell plate.
Block of N-type calcium channels is evaluated utilizing the IonWorks HT 384 well automated patch clamp electrophysiology device. This instrument allows synchronous recording from 384 well (48 at a time). A single whole cell recording is made in each well. Whole cell recording is established by perfusion of the internal compartment with amphotericin B.
The voltage protocol is designed to detect use-dependent block. A 2 Hz train of depolarizations (twenty 25 ms steps to +20 mV). The experimental sequence consists of a control train (pre-compound), incubation of cells with compound for 5 minutes, followed by a second train (post-compound). Use dependent block by compounds is estimated by comparing fractional block of the first pulse in the train to block of the 20th pulse.
Parallel patch clamp electrophysiology is performed using IonWorks HT (Molecular Devices Corp) essentially as described by Kiss and colleagues (Kiss et al. 2003; Assay and Drug Development Technologies, 1:127-135). Briefly, a stable HEK 293 cell line (referred to as CBK) expressing the N-type calcium channel subunits (α1B, α2δ, β3a) and an inwardly rectifying potassium channel (Kir2.3) is used to record barium current through the N-type calcium channel. Cells are grown in T75 culture plates to 60-90% confluence before use. […]

[2] = target: T2, Cav3.2 (T-type channel alpha-1H) (Homo sapiens, UniProt O95180); experiment: T-type calcium channel voltage-clamp assay, Cav3.2; details: read-out: Cav 3.2 IC50
T2 construct: expressed in transfected cells; host or cells: HEK 293
Procedure: (§1) The T-type calcium channel blocking activity of the compounds of this invention may be readily determined using the methodology well known in the art described by Xia, et al., Assay and Drug Development Tech., 1 (5), 637-645 (2003).
(§2) In a typical experiment ion channel function from HEK 293 cells expressing the T-type channel alpha-1G, H, or I (CaV 3.1, 3.2, 3.3) is recorded to determine the activity of compounds in blocking the calcium current mediated by the T-type channel alpha-1G, H, or I (CaV 3.1, 3.2, 3.3). In this T-type calcium (Ca^2+) antagonist voltage-clamp assay calcium currents are elicited from the resting state of the human alpha-1G, H, or I (CaV 3.1, 3.2, 3.3) calcium channel as follows. Sequence information for T-type (Low-voltage activated) calcium channels are fully disclosed in e.g., U.S. Pat. No. 5,618,720, U.S. Pat. No. 5,686,241, U.S. Pat. No. 5,710,250,U.S. Pat. No. 5,726,035, U.S. Pat. No. 5,792,846, U.S. Pat. No. 5,846,757, U.S. Pat. No. 5,851,824, U.S. Pat. No. 5,874,236, U.S. Pat. No. 5,876,958, U.S. Pat. No. 6,013,474, U.S. Pat. No. 6,057,114, U.S. Pat. No. 6,096,514, WO 99/28342, and J. Neuroscience, 19 (6):1912-1921 (1999). Cells expressing the t-type channels were grown in H3D5 growth media which is comprised DMEM, 6% bovine calf serum (HYCLONE), 30 micromolar Verapamil, 200 microgram/ml Hygromycin B, 1× Penicillin/Streptomycin. Glass pipettes are pulled to a tip diameter of 1-2 micrometer on a pipette puller. The pipettes are filled with the intracellular solution and a chloridized silver wire is inserted along its length, which is then connected to the headstage of the voltage-clamp amplifier. Trypsinization buffer was 0.05% Trypsin, 0.53 mM EDTA. The extracellular recording solution consists of (mM): 130 mM NaCl, 4 mM KCl, 1 mM MgCl2, 2 mM CaCl2, 10 mM HEPES, 30 Glucose, pH 7.4. The internal solution consists of (mM): 135 mM CsMeSO4, 1 MgCl2, 10 CsCl, 5 EGTA, 10 HEPES, pH 7.4, or 135 mM CsCl, 2 MgCl2, 3 MgATP, 2 Na2ATP, 1 Na2GTP, 5 EGTA, 10 HEPES, pH 7.4. Upon insertion of the pipette tip into the bath, the series resistance is noted (acceptable range is between 1-4 megaohm). The junction potential between the pipette and bath solutions is zeroed on the amplifier. The cell is then patched, the patch broken, and, after compensation for series resistance (>=80%), the voltage protocol is applied while recording the whole cell Ca2+ current response. Voltage protocols: (1) −80 mV holding potential every 20 seconds pulse to −20 mV for 40 msec duration; the effectiveness of the drug in inhibiting the current mediated by the channel is measured directly from measuring the reduction in peak current amplitude initiated by the voltage shift from −80 mV to −20 mV; (2). −100 mV holding potential every 15 seconds pulse to −20 mV for 40 msec duration; the effectiveness of the drug in inhibiting the current mediated by the channel is measured directly from measuring the reduction in peak current amplitude initiated by the shift in potential from −100 mV to […]. The difference in block at the two holding potentials was used to determine the effect of drug at differing levels of inactivation induced by the level of resting state potential of the cells. After obtaining control baseline calcium currents, extracellular solutions containing increasing concentrations of a test compound are washed on. Once steady state inhibition at a given compound concentration is reached, a higher concentration of compound is applied. % inhibition of the peak inward control Ca2+ current during the depolarizing step to −20 mV is plotted as a function of compound concentration.

[3] = target: T3, Cav3.1 (T-type channel alpha-1G) (Homo sapiens, UniProt O43497); experiment: T-type calcium channel voltage-clamp assay, Cav3.1; details: read-out: Cav 3.1 IC50
T3 construct: expressed in transfected cells; host or cells: HEK 293
Procedure: as §1, §2

T3 sequence (O43497 whole entry): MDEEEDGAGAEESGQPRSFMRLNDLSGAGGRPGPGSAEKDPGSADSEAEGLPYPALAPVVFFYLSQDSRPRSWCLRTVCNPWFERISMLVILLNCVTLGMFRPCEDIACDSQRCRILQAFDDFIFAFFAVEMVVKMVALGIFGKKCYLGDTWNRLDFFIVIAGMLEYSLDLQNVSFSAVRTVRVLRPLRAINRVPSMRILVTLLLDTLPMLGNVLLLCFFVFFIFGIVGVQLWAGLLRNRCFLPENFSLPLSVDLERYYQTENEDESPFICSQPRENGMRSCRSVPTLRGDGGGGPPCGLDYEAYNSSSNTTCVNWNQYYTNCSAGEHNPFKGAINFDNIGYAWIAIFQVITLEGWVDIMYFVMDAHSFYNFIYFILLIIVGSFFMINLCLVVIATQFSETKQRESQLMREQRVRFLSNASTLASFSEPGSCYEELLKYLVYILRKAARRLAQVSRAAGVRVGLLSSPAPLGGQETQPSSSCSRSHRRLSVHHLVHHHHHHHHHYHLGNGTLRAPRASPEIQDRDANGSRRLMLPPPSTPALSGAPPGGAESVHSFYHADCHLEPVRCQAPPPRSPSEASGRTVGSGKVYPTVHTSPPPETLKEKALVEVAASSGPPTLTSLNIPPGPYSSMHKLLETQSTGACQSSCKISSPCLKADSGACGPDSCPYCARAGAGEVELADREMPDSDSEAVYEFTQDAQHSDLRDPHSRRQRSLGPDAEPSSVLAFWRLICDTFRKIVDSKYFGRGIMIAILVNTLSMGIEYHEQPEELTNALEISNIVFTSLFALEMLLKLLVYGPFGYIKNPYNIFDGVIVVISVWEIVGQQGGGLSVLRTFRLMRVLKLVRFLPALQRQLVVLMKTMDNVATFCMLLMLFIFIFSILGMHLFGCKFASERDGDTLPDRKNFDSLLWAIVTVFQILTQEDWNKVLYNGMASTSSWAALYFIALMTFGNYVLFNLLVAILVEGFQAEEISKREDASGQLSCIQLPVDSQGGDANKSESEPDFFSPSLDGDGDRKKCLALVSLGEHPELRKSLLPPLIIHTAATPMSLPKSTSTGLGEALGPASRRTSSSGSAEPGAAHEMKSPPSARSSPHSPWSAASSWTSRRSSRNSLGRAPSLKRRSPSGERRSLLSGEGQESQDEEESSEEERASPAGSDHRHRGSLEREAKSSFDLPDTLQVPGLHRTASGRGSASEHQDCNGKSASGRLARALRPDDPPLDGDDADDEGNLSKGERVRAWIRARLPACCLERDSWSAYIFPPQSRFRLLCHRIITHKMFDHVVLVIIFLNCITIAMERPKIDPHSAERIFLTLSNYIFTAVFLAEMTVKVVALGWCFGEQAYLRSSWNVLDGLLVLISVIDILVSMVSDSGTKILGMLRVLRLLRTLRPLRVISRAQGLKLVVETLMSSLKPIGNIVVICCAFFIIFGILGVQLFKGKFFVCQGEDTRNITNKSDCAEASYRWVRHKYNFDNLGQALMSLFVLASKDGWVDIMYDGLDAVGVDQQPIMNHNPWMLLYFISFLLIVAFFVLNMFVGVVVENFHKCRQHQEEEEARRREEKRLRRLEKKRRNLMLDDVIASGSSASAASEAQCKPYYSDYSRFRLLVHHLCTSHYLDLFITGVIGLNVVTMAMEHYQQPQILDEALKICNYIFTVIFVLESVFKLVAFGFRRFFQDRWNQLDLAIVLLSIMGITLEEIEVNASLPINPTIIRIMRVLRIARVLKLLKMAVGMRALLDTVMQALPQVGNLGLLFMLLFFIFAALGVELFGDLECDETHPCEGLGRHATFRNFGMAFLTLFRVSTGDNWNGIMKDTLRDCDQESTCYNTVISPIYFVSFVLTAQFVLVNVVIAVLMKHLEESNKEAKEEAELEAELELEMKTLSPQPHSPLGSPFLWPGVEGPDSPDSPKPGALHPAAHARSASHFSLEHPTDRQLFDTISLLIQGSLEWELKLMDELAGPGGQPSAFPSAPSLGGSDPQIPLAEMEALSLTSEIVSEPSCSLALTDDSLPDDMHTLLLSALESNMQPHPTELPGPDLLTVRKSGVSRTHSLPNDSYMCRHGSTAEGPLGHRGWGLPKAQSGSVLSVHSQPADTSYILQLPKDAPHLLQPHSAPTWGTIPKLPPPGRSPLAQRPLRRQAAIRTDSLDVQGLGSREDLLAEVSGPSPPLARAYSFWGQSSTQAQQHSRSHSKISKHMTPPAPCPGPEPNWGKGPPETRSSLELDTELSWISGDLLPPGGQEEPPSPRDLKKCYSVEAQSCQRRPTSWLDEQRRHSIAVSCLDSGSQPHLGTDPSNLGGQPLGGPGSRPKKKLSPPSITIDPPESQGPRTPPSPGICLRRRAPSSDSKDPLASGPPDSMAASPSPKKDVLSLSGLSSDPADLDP
T2 sequence (O95180 whole entry): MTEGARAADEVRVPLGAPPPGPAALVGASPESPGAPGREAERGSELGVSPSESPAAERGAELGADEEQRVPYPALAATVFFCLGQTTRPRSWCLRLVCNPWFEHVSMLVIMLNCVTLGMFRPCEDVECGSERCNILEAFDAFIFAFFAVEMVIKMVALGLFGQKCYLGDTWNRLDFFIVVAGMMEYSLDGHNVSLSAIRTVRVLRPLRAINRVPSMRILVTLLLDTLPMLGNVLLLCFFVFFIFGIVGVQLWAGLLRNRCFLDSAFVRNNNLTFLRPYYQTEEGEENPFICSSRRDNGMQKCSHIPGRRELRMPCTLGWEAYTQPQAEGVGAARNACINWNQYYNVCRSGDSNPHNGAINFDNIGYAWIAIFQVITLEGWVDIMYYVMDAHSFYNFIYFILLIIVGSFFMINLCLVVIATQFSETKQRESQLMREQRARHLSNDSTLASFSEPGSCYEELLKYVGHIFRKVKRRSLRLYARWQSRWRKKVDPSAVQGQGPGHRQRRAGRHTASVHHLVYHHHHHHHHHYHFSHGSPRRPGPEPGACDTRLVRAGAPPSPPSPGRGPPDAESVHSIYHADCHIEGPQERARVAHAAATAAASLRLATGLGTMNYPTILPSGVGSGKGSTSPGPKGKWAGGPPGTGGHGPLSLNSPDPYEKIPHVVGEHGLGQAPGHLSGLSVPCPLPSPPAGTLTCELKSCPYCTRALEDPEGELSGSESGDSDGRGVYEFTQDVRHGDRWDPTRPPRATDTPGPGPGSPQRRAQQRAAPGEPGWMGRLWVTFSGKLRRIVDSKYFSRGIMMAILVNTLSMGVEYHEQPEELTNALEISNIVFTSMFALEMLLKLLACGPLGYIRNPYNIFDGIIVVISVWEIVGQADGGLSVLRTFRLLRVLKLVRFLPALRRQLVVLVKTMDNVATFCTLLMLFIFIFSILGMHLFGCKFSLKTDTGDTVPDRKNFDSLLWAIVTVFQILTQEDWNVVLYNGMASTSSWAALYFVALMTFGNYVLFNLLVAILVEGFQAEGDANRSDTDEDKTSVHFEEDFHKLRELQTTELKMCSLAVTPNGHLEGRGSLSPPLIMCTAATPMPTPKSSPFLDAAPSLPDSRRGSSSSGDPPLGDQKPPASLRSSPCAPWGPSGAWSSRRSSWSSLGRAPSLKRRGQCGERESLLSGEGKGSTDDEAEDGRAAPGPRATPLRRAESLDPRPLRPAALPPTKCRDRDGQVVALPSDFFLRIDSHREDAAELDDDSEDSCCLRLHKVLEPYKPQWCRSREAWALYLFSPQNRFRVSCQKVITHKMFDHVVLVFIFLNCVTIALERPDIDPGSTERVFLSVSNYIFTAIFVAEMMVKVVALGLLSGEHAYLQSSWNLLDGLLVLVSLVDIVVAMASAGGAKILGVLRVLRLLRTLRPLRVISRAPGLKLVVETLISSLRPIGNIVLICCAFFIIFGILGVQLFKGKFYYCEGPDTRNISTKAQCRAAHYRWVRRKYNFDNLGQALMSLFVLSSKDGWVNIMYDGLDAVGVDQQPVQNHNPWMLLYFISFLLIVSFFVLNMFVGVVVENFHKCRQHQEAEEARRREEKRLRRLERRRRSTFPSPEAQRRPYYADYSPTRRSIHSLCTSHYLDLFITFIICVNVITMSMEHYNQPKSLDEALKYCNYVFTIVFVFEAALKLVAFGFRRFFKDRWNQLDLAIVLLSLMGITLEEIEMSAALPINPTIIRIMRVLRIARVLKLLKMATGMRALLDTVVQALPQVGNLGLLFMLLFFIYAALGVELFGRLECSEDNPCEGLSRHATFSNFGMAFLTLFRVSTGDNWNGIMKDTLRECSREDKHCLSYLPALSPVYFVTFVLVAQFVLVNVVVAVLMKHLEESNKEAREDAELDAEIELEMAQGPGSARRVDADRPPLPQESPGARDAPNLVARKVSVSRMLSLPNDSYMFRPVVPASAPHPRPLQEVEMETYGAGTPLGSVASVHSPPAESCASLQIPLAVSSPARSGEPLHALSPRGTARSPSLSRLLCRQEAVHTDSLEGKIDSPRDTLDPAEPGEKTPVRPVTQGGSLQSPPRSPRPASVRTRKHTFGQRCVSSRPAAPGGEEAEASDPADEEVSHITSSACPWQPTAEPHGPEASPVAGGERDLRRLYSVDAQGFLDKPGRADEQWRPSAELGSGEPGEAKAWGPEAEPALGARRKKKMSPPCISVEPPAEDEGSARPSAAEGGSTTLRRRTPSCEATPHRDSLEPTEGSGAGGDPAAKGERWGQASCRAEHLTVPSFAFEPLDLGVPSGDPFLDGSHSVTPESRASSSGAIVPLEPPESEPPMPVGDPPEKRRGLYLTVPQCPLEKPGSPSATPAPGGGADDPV

inhibition at 10 µM [1] [%]	inhibition at 30 µM [1] [%]	IC50 [1] [µM]	IC50 [2] [µM]	IC50 [3] [µM]	Compound
97	95	0.83	2.52	2.34	CCn1nc(C)cc1C(=O)N1CCN(c2cc(C(C)(C)C)cc(C(C)(C)C)c2)CC1 [Compound 33, (4-(3,5-di-tert-butylphenyl)piperazin-1-yl)(1-ethyl-3-methyl-1H-pyrazol-5-yl)methanone]
94	101	0.55	2.29	2.04	Cc1nc(C(=O)N2CCN(c3cc(C(C)(C)C)cc(C(C)(C)C)c3)CC2)c(C(F)(F)F)o1 [Compound 37, (4-(3,5-di-tert-butylphenyl)piperazin-1-yl)(2-methyl-5-(trifluoromethyl)oxazol-4-yl)methanone]
107	98	0.85	2.23	1.49	CCOc1ncccc1C(=O)N1CCN(c2cc(C(C)(C)C)cc(C(C)(C)C)c2)CC1 [Compound 38, (4-(3,5-di-tert-butylphenyl)piperazin-1-yl)(2-ethoxypyridin-3-yl)methanone]
102	107	0.83	1.41	1.51	Cc1nc(C(F)(F)F)c(C(=O)N2CCN(c3cc(C(C)(C)C)cc(C(C)(C)C)c3)CC2)s1 [Compound 41, (4-(3,5-di-tert-butylphenyl)piperazin-1-yl)(2-methyl-4-(trifluoromethyl)thiazol-5-yl)methanone]
97	101	1.08	1.8	0.96	CCSc1ncccc1C(=O)N1CCN(c2cc(C(C)(C)C)cc(C(C)(C)C)c2)CC1 [Compound 45, (4-(3,5-di-tert-butylphenyl)piperazin-1-yl)(2-(ethylthio)pyridin-3-yl)methanone]

Continued, compound first:

Compound	inhibition at 10 µM [1] [%]	inhibition at 30 µM [1] [%]	IC50 [1] [µM]	IC50 [2] [µM]	IC50 [3] [µM]
CC(C)c1cc(C(=O)N2CCN(c3cc(C(C)(C)C)cc(C(C)(C)C)c3)CC2)cs1 [Compound 23, (4-(3,5-di-tert-butylphenyl)piperazin-1-yl)(5-isopropylthiophen-3-yl)methanone]	90	97	1.4	0.87	0.8
Cc1ccc(C(=O)N2CCN(c3cc(C(C)(C)C)cc(C(C)(C)C)c3)CC2)s1 [Compound 28, (4-(3,5-di-tert-butylphenyl)piperazin-1-yl)(5-methylthiophen-2-yl)methanone]	87	101	2.4	0.96	0.8
Cc1ccsc1C(=O)N1CCN(c2cc(C(C)(C)C)cc(C(C)(C)C)c2)CC1 [Compound 29, (4-(3,5-di-tert-butylphenyl)piperazin-1-yl)(3-methylthiophen-2-yl)methanone]	88	101	2	1.01	0.84
Cc1nc(C(F)(F)F)ccc1C(=O)N1CCN(c2cc(C(C)(C)C)cc(C(C)(C)C)c2)CC1 [Compound 30, (4-(3,5-di-tert-butylphenyl)piperazin-1-yl)(2-methyl-6-(trifluoromethyl)pyridin-3-yl)methanone]	91	100	1.3	1.15	0.97
CCCSc1ncccc1C(=O)N1CCN(c2cc(C(C)(C)C)cc(C(C)(C)C)c2)CC1 [Compound 31, (4-(3,5-di-tert-butylphenyl)piperazin-1-yl)(2-(propylthio)pyridin-3-yl)methanone]	99	104	0.85	1.59	1.25
Cc1nc(C)c(C(=O)N2CCN(c3cc(C(C)(C)C)cc(C(C)(C)C)c3)CC2)s1 [Compound 32, (4-(3,5-di-tert-butylphenyl)piperazin-1-yl)(2,4-dimethylthiazol-5-yl)methanone]	98	98	0.78	1.15	1.09
